Data on 43 compounds can be found in ChEMBL document CHEMBL6121052, “Design of ROS-Triggered Sesquiterpene Lactone SC Prodrugs as TrxR1 Covalent Inhibitors for the Treatment of Non-Small Cell Lung Cancer” (J Med Chem, 2025).

Assay [1] deals with A549. Kind of assay: Cytotoxicity against human A549 cells assessed as cell viability incubated for 48 hrs by MTT assay. As to conditions: A549, 48 h. The assay is classed as functional, cell-based. A general note: Tetrazolium assays rely on reduction of a dye to a coloured formazan, in cell work by metabolically active cells.
Assay [2] has as its system NCI-H460. Kind of assay: Cytotoxicity against human NCI-H460 cells assessed as cell viability incubated for 48 hrs by MTT assay. The assay is classed as functional, cell-based. The settings on record: for IC50: NCI-H460, 48 h.

Calls of active or inactive are those of the source. The calls are words filed in the database; no cut-off is given here.

`CCCCCSC[C@H]1C(=O)O[C@H]2CC3=C[C@H](C/C(C)=C/[C@@H](OC(=O)/C=C/c4ccccc4)[C@@H]21)OC3=O`: the IC50 in assay [1] and in assay [2] was more than 25 µM in each case.

Turning to `C/C1=C\[C@@H](OC(=O)C2CC2)[C@H]2[C@H](CC3=C[C@H](C1)OC3=O)OC(=O)[C@@H]2CSCCCCCSC[C@H]1C(=O)O[C@H]2CC3=C[C@H](C/C(C)=C/[C@@H](OC(=O)C4CC4)[C@@H]21)OC3=O`, the IC50 in assay [1] and in assay [2] was more than 25 µM throughout.

As for `CCCCCSC(=O)O[C@@H]1/C=C(\C)C[C@H]2C=C(C[C@@H]3OC(=O)[C@H](CSc4ccc(F)cc4)[C@H]31)C(=O)O2`, the IC50 in assay [1] was determined as 10.7 µM.

In the case of `C/C1=C\[C@@H](O)[C@H]2[C@H](CC3=C[C@H](C1)OC3=O)OC(=O)[C@@H]2CSc1ccc(F)cc1`, the IC50 in assay [1] and in assay [2] was more than 25 µM throughout.

As for `C/C1=C\[C@@H](OC(=O)/C=C/c2ccccc2)[C@H]2[C@H](CC3=C[C@H](C1)OC3=O)OC(=O)[C@@H]2CSc1cccc(F)c1`, the results for the 50% inhibitory concentration (IC50) in assay [1] and in assay [2] were 15.6 µM and more than 25 µM, respectively.

On to `C/C1=C\[C@@H](OC(=O)/C=C/c2ccccc2)[C@H]2[C@H](CC3=C[C@H](C1)OC3=O)OC(=O)[C@@H]2CSCCCCCCCCCCSC[C@H]1C(=O)O[C@H]2CC3=C[C@H](C/C(C)=C/[C@@H](OC(=O)/C=C/c4ccccc4)[C@@H]21)OC3=O`, for which the IC50 in assay [1] and in assay [2] was more than 25 µM throughout.

As to `COc1ccc(SC[C@H]2C(=O)O[C@H]3CC4=C[C@H](C/C(C)=C/[C@@H](OC(=O)c5ccccc5)[C@@H]32)OC4=O)cc1`, the IC50 was 9.67 µM in assay [1] and more than 25 µM in assay [2].

For `C/C1=C\[C@@H](OC(=O)/C=C/c2ccccc2)[C@H]2[C@H](CC3=C[C@H](C1)OC3=O)OC(=O)[C@@H]2CSc1cccc(Br)c1`, the IC50 was 8.61 µM in assay [1] and more than 25 µM in assay [2].

Consider `C/C1=C\[C@@H](OC(=O)/C=C/c2ccccc2)[C@H]2[C@H](CC3=C[C@H](C1)OC3=O)OC(=O)[C@@H]2CSc1nc2ccccc2s1`, for which the IC50 in assay [1] and in assay [2] was more than 25 µM throughout.

As to `C/C1=C\[C@@H](O)[C@H]2[C@H](CC3=C[C@H](C1)OC3=O)OC(=O)[C@@H]2CSCCOCCOCCSC[C@H]1C(=O)O[C@H]2CC3=C[C@H](C/C(C)=C/[C@@H](O)[C@@H]21)OC3=O`, the IC50 in assay [1] and in assay [2] was more than 25 µM throughout.

For `C#CCNC(=O)O[C@@H]1/C=C(\C)C[C@H]2C=C(C[C@@H]3OC(=O)[C@H](CSc4ccc(F)cc4)[C@H]31)C(=O)O2`, the IC50 in assay [1] was determined as 22.1 µM.

In the case of `C/C1=C\[C@@H](OC(=O)C2CC2)[C@H]2[C@H](CC3=C[C@H](C1)OC3=O)OC(=O)[C@@H]2CSCc1ccc(Cl)cc1`, the IC50 in assay [1] and in assay [2] was more than 25 µM in each case.

In the case of `C/C1=C\[C@@H](OC(=O)C2CC2)[C@H]2[C@H](CC3=C[C@H](C1)OC3=O)OC(=O)[C@@H]2CSc1ccc(SC[C@H]2C(=O)O[C@H]3CC4=C[C@H](C/C(C)=C/[C@@H](OC(=O)C5CC5)[C@@H]32)OC4=O)cc1`, the results for the IC50 in assay [1] and in assay [2] were 1.15 µM and more than 25 µM, respectively.

In the case of `C/C1=C\[C@@H](OC(=O)C2CC2)[C@H]2[C@H](CC3=C[C@H](C1)OC3=O)OC(=O)[C@@H]2CSCCOCCOCCSC[C@H]1C(=O)O[C@H]2CC3=C[C@H](C/C(C)=C/[C@@H](OC(=O)C4CC4)[C@@H]21)OC3=O`, the IC50 in assay [1] is 13.2 µM; in assay [2], more than 25 µM.

Regarding `C/C1=C\[C@@H](OC(=O)C2CC2)[C@H]2[C@H](CC3=C[C@H](C1)OC3=O)OC(=O)[C@@H]2CSC1CCCCC1`, the IC50 in assay [1] and in assay [2] was more than 25 µM throughout.

With `C/C1=C\[C@@H](OC(=O)C2CC2)[C@H]2[C@H](CC3=C[C@H](C1)OC3=O)OC(=O)[C@@H]2CSC(=S)NCc1ccc(F)cc1`, the IC50 in assay [1] worked out at 1.79 µM; in assay [2], 15.2 µM.

On to `C/C1=C\[C@@H](OC(=O)c2ccccc2)[C@H]2[C@H](CC3=C[C@H](C1)OC3=O)OC(=O)[C@@H]2CSc1ccc(SC[C@H]2C(=O)O[C@H]3CC4=C[C@H](C/C(C)=C/[C@@H](OC(=O)c5ccccc5)[C@@H]32)OC4=O)cc1`, for which the IC50 in assay [1] and in assay [2] was more than 25 µM throughout.

For the compound `C/C1=C\[C@@H](OC(=O)c2ccccc2)[C@H]2[C@H](CC3=C[C@H](C1)OC3=O)OC(=O)[C@@H]2CSc1cccc(F)c1`, the IC50 in assay [1] was 6.17 µM; in assay [2] it was more than 25 µM.

In the case of `COc1ccc(SC[C@H]2C(=O)O[C@H]3CC4=C[C@H](C/C(C)=C/[C@@H](OC(=O)C5CC5)[C@@H]32)OC4=O)cc1`, the figures for the IC50 in assay [1] and in assay [2] were 6.81 µM and more than 25 µM, respectively.

Consider `C/C1=C\[C@@H](OC(=O)NCc2cccs2)[C@H]2[C@H](CC3=C[C@H](C1)OC3=O)OC(=O)[C@@H]2CSC(=S)N(C)C`, for which, in assay [1], the IC50 came out at 2.8 µM.

Take `C/C1=C\[C@@H](OC(=O)/C=C/c2ccccc2)[C@H]2[C@H](CC3=C[C@H](C1)OC3=O)OC(=O)[C@@H]2CSCCCCCCSC[C@H]1C(=O)O[C@H]2CC3=C[C@H](C/C(C)=C/[C@@H](OC(=O)/C=C/c4ccccc4)[C@@H]21)OC3=O`: the IC50 in assay [1] and in assay [2] was more than 25 µM throughout.

Take `C/C1=C\[C@@H](OC(=O)/C=C/c2ccccc2)[C@H]2[C@H](CC3=C[C@H](C1)OC3=O)OC(=O)[C@@H]2CSCc1ccc(Cl)cc1`: the IC50 in assay [1] and in assay [2] was more than 25 µM each time.

Take `C#CCNC(=O)O[C@@H]1/C=C(\C)C[C@H]2C=C(C[C@@H]3OC(=O)[C@H](CSC(=S)N(C)C)[C@H]31)C(=O)O2`: in assay [1], the IC50 turned out to be 1.76 µM.

For `C/C1=C\[C@@H](OC(=O)C2CC2)[C@H]2[C@H](CC3=C[C@H](C1)OC3=O)OC(=O)[C@@H]2CSC(=S)NCc1cccnc1`, the IC50 came to 1.41 µM in assay [1] and 15.3 µM in assay [2].

Turning to `C/C1=C\[C@@H](OC(=O)/C=C/c2ccccc2)[C@H]2[C@H](CC3=C[C@H](C1)OC3=O)OC(=O)[C@@H]2CSCCCCCCCCSC[C@H]1C(=O)O[C@H]2CC3=C[C@H](C/C(C)=C/[C@@H](OC(=O)/C=C/c4ccccc4)[C@@H]21)OC3=O`, the IC50 in assay [1] and in assay [2] was more than 25 µM throughout.

`C/C1=C\[C@@H](OC(=O)c2ccccc2)[C@H]2[C@H](CC3=C[C@H](C1)OC3=O)OC(=O)[C@@H]2CSCc1ccc(Cl)cc1`: the IC50 in assay [1] and in assay [2] was more than 25 µM each time.

For `CCCCCSC[C@H]1C(=O)O[C@H]2CC3=C[C@H](C/C(C)=C/[C@@H](OC(=O)C4CC4)[C@@H]21)OC3=O`, the IC50 in assay [1] and in assay [2] was more than 25 µM throughout.

Consider `C/C1=C\[C@@H](OC(=O)c2ccccc2)[C@H]2[C@H](CC3=C[C@H](C1)OC3=O)OC(=O)[C@@H]2CSCCCCCCCCCCSC[C@H]1C(=O)O[C@H]2CC3=C[C@H](C/C(C)=C/[C@@H](OC(=O)c4ccccc4)[C@@H]21)OC3=O`, for which the IC50 in assay [1] and in assay [2] was more than 25 µM in each case.

Turning to `C/C1=C\[C@@H](OC(=O)C2CC2)[C@H]2[C@H](CC3=C[C@H](C1)OC3=O)OC(=O)[C@@H]2CSCCCCCCSC[C@H]1C(=O)O[C@H]2CC3=C[C@H](C/C(C)=C/[C@@H](OC(=O)C4CC4)[C@@H]21)OC3=O`, the IC50 in assay [1] and in assay [2] was more than 25 µM each time.

For the compound `CCCNC(=O)O[C@@H]1/C=C(\C)C[C@H]2C=C(C[C@@H]3OC(=O)[C@H](CSc4ccc(F)cc4)[C@H]31)C(=O)O2`, the IC50 in assay [1] was 10.5 µM.

For the compound `C/C1=C\[C@@H](OC(=O)NC2CC2)[C@H]2[C@H](CC3=C[C@H](C1)OC3=O)OC(=O)[C@@H]2CSc1ccc(F)cc1`, the IC50 in assay [1] worked out at 15.9 µM.

`C/C1=C\[C@@H](OC(=O)SCC(C)C)[C@H]2[C@H](CC3=C[C@H](C1)OC3=O)OC(=O)[C@@H]2CSC(=S)N(C)C`: the half-maximal inhibitory concentration (IC50) in assay [1] was 1.37 µM.

Regarding `C/C1=C\[C@@H](OC(=O)OCc2cccs2)[C@H]2[C@H](CC3=C[C@H](C1)OC3=O)OC(=O)[C@@H]2CSc1ccc(F)cc1`, the IC50 in assay [1] worked out at 22.6 µM.

With `C/C1=C\[C@@H](OC(=O)NC2CC2)[C@H]2[C@H](CC3=C[C@H](C1)OC3=O)OC(=O)[C@@H]2CSC(=S)N(C)C`, the IC50 in assay [1] amounted to 2.08 µM.

On to `C/C1=C\[C@@H](OC(=O)SC2CCCCC2)[C@H]2[C@H](CC3=C[C@H](C1)OC3=O)OC(=O)[C@@H]2CSC(=S)N(C)C`, for which the IC50 in assay [1] was 2.01 µM.

`C/C1=C\[C@@H](OC(=O)OCc2ccc(F)cc2)[C@H]2[C@H](CC3=C[C@H](C1)OC3=O)OC(=O)[C@@H]2CSc1ccc(F)cc1`: in assay [1], the concentration for half-maximal inhibition (IC50) came out at 7.29 µM.

For the compound `C/C1=C\[C@@H](OC(=O)NCc2cccs2)[C@H]2[C@H](CC3=C[C@H](C1)OC3=O)OC(=O)[C@@H]2CSc1ccc(F)cc1`, in assay [1], the IC50 worked out at 5.51 µM.

Take `C/C1=C\[C@@H](OC(=O)OC2CC2)[C@H]2[C@H](CC3=C[C@H](C1)OC3=O)OC(=O)[C@@H]2CSC(=S)N(C)C`: the IC50 in assay [1] was 1.29 µM.

For the compound `C/C1=C\[C@@H](OC(=O)OCc2cccs2)[C@H]2[C@H](CC3=C[C@H](C1)OC3=O)OC(=O)[C@@H]2CSC(=S)N(C)C`, the IC50 in assay [1] is 2.56 µM.

On to `C/C1=C\[C@@H](OC(=O)SC2CCCCC2)[C@H]2[C@H](CC3=C[C@H](C1)OC3=O)OC(=O)[C@@H]2CSc1ccc(F)cc1`, for which the IC50 in assay [1] amounted to 3.94 µM.

On to `C[C@@]12C[C@H]3C=C(C[C@@H]4OC(=O)[C@H](CSc5ccc(F)cc5)[C@H]4[C@H](OC(=O)C4CC4)[C@H]1O2)C(=O)O3`, for which the result in assay [2] was inactive.

As to `C/C1=C\[C@@H](OC(=O)N2CCCC2)[C@H]2[C@H](CC3=C[C@H](C1)OC3=O)OC(=O)[C@@H]2CSc1ccc(F)cc1`, the IC50 in assay [1] turned out to be 7.51 µM.

Regarding `C/C1=C\[C@@H](OC(=O)NCc2cccnc2)[C@H]2[C@H](CC3=C[C@H](C1)OC3=O)OC(=O)[C@@H]2CSc1ccc(F)cc1`, in assay [1], the IC50 stood at 19.3 µM.

What is called IC50 is the concentration that inhibits the measured activity by half.
